These results are taken from ChEMBL document CHEMBL1687765, “NagZ inactivation prevents and reverts beta-lactam resistance, driven by AmpD and PBP 4 mutations, in Pseudomonas aeruginosa” (2010).

Common to all, as to type: functional
In assay [1] the test system is Pseudomonas aeruginosa. Description: Induction of ampC mRNA in dacB::lox and nagZ::lox gene-deficient Pseudomonas aeruginosa PAO1 at 50 ug/ml by RT-PCR relative to wild type Pseudomonas aeruginosa PAO1 (reference value: 3 +/- 1.9 no unit).
In assay [2] the test system is Pseudomonas aeruginosa. The assay can be described thus: Induction of creD mRNA in Pseudomonas aeruginosa PAO1 at 50 ug/ml by RT-PCR relative to wild type Pseudomonas aeruginosa PAO1 (reference value: 1 no unit).
Assay [3] has as its system Pseudomonas aeruginosa. The assay can be described thus: Induction of ampC mRNA in ampD::lox, ampDh2::lox,ampDh3::lox and nagZ::lox gene-deficient Pseudomonas aeruginosa PAO1 at 50 ug/ml by RT-PCR relative to wild type Pseudomonas aeruginosa PAO1 (reference value: 57 +/- 31 no unit).
Assay [4] relates to Pseudomonas aeruginosa. The assay can be described thus: Induction of creD mRNA in dacB::lox and nagZ::lox gene-deficient Pseudomonas aeruginosa PAO1 at 50 ug/ml by RT-PCR relative to wild type Pseudomonas aeruginosa PAO1 (reference value: 4 +/- 0.8 no unit).
The subject of assay [5] is Pseudomonas aeruginosa. The assay can be described thus: Induction of creD mRNA in ampD::lox gene-deficient Pseudomonas aeruginosa PAO1 at 50 ug/ml by RT-PCR relative to wild type Pseudomonas aeruginosa PAO1 (reference value: 1.1 +/- 0.3 no unit).
Assay [6] relates to Pseudomonas aeruginosa. Description: Induction of creD mRNA in ampD::lox, ampDh2::lox,ampDh3::lox and nagZ::lox gene-deficient Pseudomonas aeruginosa PAO1 at 50 ug/ml by RT-PCR relative to wild type Pseudomonas aeruginosa PAO1 (reference value: -1.4 +/- 0.1 no unit).
The subject of assay [7] is Pseudomonas aeruginosa. Description: Induction of creD mRNA in dacB::lox gene-deficient Pseudomonas aeruginosa PAO1 at 50 ug/ml by RT-PCR relative to wild type Pseudomonas aeruginosa PAO1 (reference value: 83 +/- 7 no unit).
Assay [8] concerns Pseudomonas aeruginosa. The assay can be described thus: Induction of creD mRNA in ampR::lox gene-deficient Pseudomonas aeruginosa PAO1 at 50 ug/ml by RT-PCR relative to wild type Pseudomonas aeruginosa PAO1 (reference value: 1.6 +/- 0.1 no unit).
Assay [9] has as its system Pseudomonas aeruginosa. The assay can be described thus: Induction of ampC mRNA in ampR::lox gene-deficient Pseudomonas aeruginosa PAO1 at 50 ug/ml by RT-PCR relative to wild type Pseudomonas aeruginosa PAO1 (reference value: 3.8 +/- 0.4 no unit).
The test system of assay [10] is Pseudomonas aeruginosa. The assay can be described thus: Induction of ampC mRNA in ampD::lox and nagZ::lox gene-deficient Pseudomonas aeruginosa PAO1 at 50 ug/ml by RT-PCR relative to wild type Pseudomonas aeruginosa PAO1 (reference value: 1 +/- 0.4 no unit).
For assay [11], the system named is Pseudomonas aeruginosa. Description: Induction of ampC mRNA in dacB::lox gene-deficient Pseudomonas aeruginosa PAO1 at 50 ug/ml by RT-PCR relative to wild type Pseudomonas aeruginosa PAO1 (reference value: 51 +/- 16 no unit).
Assay [12] has as its system Pseudomonas aeruginosa. The assay can be described thus: Induction of ampC mRNA in ampD::lox and nagZ::lox gene-deficient Pseudomonas aeruginosa PAO1 at 50 ug/ml by RT-PCR relative to wild type Pseudomonas aeruginosa PAO1 (reference value: 40 +/- 17 no unit) harboring dacB gene.
In assay [13] the test system is Pseudomonas aeruginosa. The assay can be described thus: Induction of creD mRNA in ampD::lox, ampDh2::lox and ampDh3::lox gene-deficient Pseudomonas aeruginosa PAO1 at 50 ug/ml by RT-PCR relative to wild type Pseudomonas aeruginosa PAO1 (reference value: 1.3 +/- 0.3 no unit).
For assay [14], the system named is Pseudomonas aeruginosa. The assay can be described thus: Induction of creD mRNA in ampD::lox and nagZ::lox gene-deficient Pseudomonas aeruginosa PAO1 at 50 ug/ml by RT-PCR relative to wild type Pseudomonas aeruginosa PAO1 (reference value: 1.9 +/- 1.3 no unit) harboring dacB gene.
In assay [15] the test system is Pseudomonas aeruginosa. The assay can be described thus: Induction of ampC mRNA in Pseudomonas aeruginosa PAO1 at 50 ug/ml by RT-PCR relative to wild type Pseudomonas aeruginosa PAO1 (reference value: 1 no unit).
For assay [16], the system named is Pseudomonas aeruginosa. Description: Induction of ampC mRNA in ampD::lox, ampDh2::lox and ampDh3::lox gene-deficient Pseudomonas aeruginosa PAO1 at 50 ug/ml by RT-PCR relative to wild type Pseudomonas aeruginosa PAO1 (reference value: 1020 +/- 88 no unit).
Assay [17] has as its system Pseudomonas aeruginosa. The assay can be described thus: Induction of ampC mRNA in ampD::lox gene-deficient Pseudomonas aeruginosa PAO1 at 50 ug/ml by RT-PCR relative to wild type Pseudomonas aeruginosa PAO1 (reference value: 47 +/-9.5 no unit).
Assay [18] concerns Pseudomonas aeruginosa. The assay can be described thus: Induction of creD mRNA in ampD::lox gene-deficient Pseudomonas aeruginosa PAO1 at 50 ug/ml by RT-PCR relative to wild type Pseudomonas aeruginosa PAO1 (reference value: 51 +/- 24 no unit) harboring dacB gene.
Assay [19] has as its system Pseudomonas aeruginosa. The assay can be described thus: Induction of creD mRNA in nagZ::lox gene-deficient Pseudomonas aeruginosa PAO1 at 50 ug/ml by RT-PCR relative to wild type Pseudomonas aeruginosa PAO1 (reference value: 1.1 +/- 0.3 no unit).
In assay [20] the test system is Pseudomonas aeruginosa. Description: Induction of ampC mRNA in nagZ::lox gene-deficient Pseudomonas aeruginosa PAO1 at 50 ug/ml by RT-PCR relative to wild type Pseudomonas aeruginosa PAO1 (reference value: -2.1 +/- 1.5 no unit).
Assay [21] relates to Pseudomonas aeruginosa. Description: Induction of creD mRNA in ampD::lox and nagZ::lox gene-deficient Pseudomonas aeruginosa PAO1 at 50 ug/ml by RT-PCR relative to wild type Pseudomonas aeruginosa PAO1 (reference value: 2.8 +/- 1.6 no unit).
Assay [22] relates to Pseudomonas aeruginosa. The assay can be described thus: Induction of ampC mRNA in ampD::lox gene-deficient Pseudomonas aeruginosa PAO1 at 50 ug/ml by RT-PCR relative to wild type Pseudomonas aeruginosa PAO1 (reference value: 1770 +/- 414 no unit) harboring dacB gene.

For the compound `CO[C@@]1(NC(=O)Cc2cccs2)C(=O)N2C(C(=O)O)=C(COC(N)=O)CS[C@@H]21` [CEFOXITIN], the “fold change (FC)” value is 661 in the assay with Pseudomonas aeruginosa [1]; 24 in the assay on Pseudomonas aeruginosa [2]; 905 in the assay on Pseudomonas aeruginosa [3]; 95 with Pseudomonas aeruginosa [4]; 2.7 in the assay with Pseudomonas aeruginosa [5]; 1 with Pseudomonas aeruginosa [6]. For the same compound, the “fold change (FC)” value in the assay on Pseudomonas aeruginosa [7] was 120; with Pseudomonas aeruginosa [8], 189; with Pseudomonas aeruginosa [9], 3.3; with Pseudomonas aeruginosa [10], 483; with Pseudomonas aeruginosa [11] it was 232; in the assay on Pseudomonas aeruginosa [12], 906. For the same compound, the “fold change (FC)” value in the assay on Pseudomonas aeruginosa [13] worked out at 1.6; with Pseudomonas aeruginosa [14], 418; in the assay on Pseudomonas aeruginosa [15], 78; with Pseudomonas aeruginosa [16] it was 1105; with Pseudomonas aeruginosa [17], 134; in the assay with Pseudomonas aeruginosa [18], 81. The “fold change (FC)” value in the assay with Pseudomonas aeruginosa [19] came to 54; in the assay on Pseudomonas aeruginosa [20], 469; in the assay on Pseudomonas aeruginosa [21] it was 99; in the assay with Pseudomonas aeruginosa [22], 1950.
